# Measured values published in patent US9409891B2, “Solid forms of an antiviral compound” (Gilead Sciences, Inc., priority 2012, dated 2016).
# Entries after “also recorded” stand apart in the source; their conditions may differ.
# Key:
# Assay type in all cases: physicochemical
# [1] = Follow-up stable form screening (Form II stirred in solvents at about 22° C.); settings: for 2-Week Form / 24 h Form: Form II stirred at about 22° C.; for solubility: about 22° C., Form II start
# Protocol: In the follow-up stable form screening experiments, the starting materials were Form II. The solids were stirring in the solvents list below at about 22° C. in 2 ml vials.
# [2] = Stable form competition study in ACN; settings: Forms I through V added to high concentration solution of amorphous Compound I in ACN, stirred overnight
# Protocol: To further verify the stability of Form II, competitive crystallization was conducted by adding Forms I through V into a high concentration solution of amorphous Compound I in ACN. […] The mother liquor obtained, which was saturated in terms of Form II, was used in another test in which other forms (Forms I, III, IV and V) were added.
# [3] = Hydrate screening, ACN/water system
# [4] = Hydrate screening, EtOH/water system; settings: ethanol/water
# Description: When the organic component used in the solvent mixture forms solvate with Compound I, potential hydrates may not show up in the slurry screen, as shown in the hydrate screening using ethanol/water mixtures (Table 4). Form IX is a new form found in this study.
# [5] = Form II stability in water at elevated temperature (slurry, XRPD)
# Protocol: During formulation, Compound I may be wet granulated and dried at <50° C. A slurry of Form II in water was stirred at 48° C. (50° C. jacket) and was sampled periodically for XRPD analysis to determine Form I content.
# [6] = Stability and hygroscopicity under ambient conditions
# [7] = Seeding of Compound I solution in DIPE with Form VI; settings: Compound I solution in DIPE seeded with Form VI; only Form II obtained
# Protocol: In an attempt crystallize Form VI, the solution of Compound I in DIPE was seeded with Form VI. However, only Form II was obtained.
# [8] = water content 10%, water activity 0.510
# [9] = water content 20%, water activity 0.654
structure (smiles),measurement,setting,value
"CC1=CC[C@H](C(=O)N(c2cc(C#CC(C)(C)C)sc2C(=O)O)[C@H]2CC[C@](O)(CO[C@H]3CCOC3)CC2)CC1 (relative stereo) [Form II, 5-(3,3-dimethylbutyn-1-yl)-3-[(cis-4-hydroxy-4-{[(3S)-tetrahydrofuran-3-yloxy]methyl}cyclohexyl){[(1R)-4-methylcyclohex-3-en-1-yl]carbonyl}amino]thiophene-2-carboxylic acid]",2-Week Form,[1]; 2 Me-THF,solution
same,24 h Form,[1]; 2 Me-THF,solution
same,solubility,"[1]; 2 Me-THF, solution",>334 mg/mL
same,solubility,[1]; ACN/water (50/50),18 mg/mL
same,solubility,[1]; ACN,6 mg/mL
same,solubility,[1]; Acetone,241 mg/mL
same,2-Week Form,[1]; DCM,solution
same,24 h Form,[1]; DCM,solution
same,solubility,"[1]; DCM, solution",>274 mg/mL
same,solubility,[1]; Ethyl Acetate,124 mg/mL
same,solubility,[1]; Heptane,0.05 mg/mL
same,solubility,[1]; Isopropyl Acetate,59 mg/mL
same,solubility,[1]; MIBK,116 mg/mL
same,2-Week Form,[1]; MeOH,solution
same,24 h Form,[1]; MeOH,solution
same,solubility,"[1]; MeOH, solution",>321 mg/mL
same,solubility,[1]; Methyl t-butyl ether,108 mg/mL
same,2-Week Form,[1]; THF,solution
same,24 h Form,[1]; THF,solution
same,solubility,"[1]; THF, solution",>346 mg/mL
same,solubility,[1]; Toluene,40 mg/mL
same,24 h Form,[1]; Water,II + I
same,Stability of Form II in tested solvents (summary of Table 2),"[1]; stirred at about 22° C., up to 2 weeks","stable in most tested solvents except for alcohols, water, and MEK"
same,Form detected after competitive crystallization,[2],the only detected form
same,Equivalent RH up to which Form II is stable,[3]; 22° C.,≤ 86.3 % RH
same,Water activity up to which Form II is stable,[3]; 22° C.,up to 0.863
same,Form at 2 weeks,"[3]; water content 30%, water activity 0.896, 22° C.",VIII
same,Form at 2 weeks,"[3]; water content 32%, water activity 0.9, 22° C.",VIII
same,Form at 2 weeks,"[3]; water content 40%, water activity 0.914, 22° C.",VIII
same,Form at 2 weeks,"[3]; water content 50%, water activity 0.926, 22° C.",VIII
same,Form at 24 h or 90 h,"[3]; water content 50%, water activity 0.926, 90 h, 22° C.",II + small
same,Form at 2 weeks,"[3]; water content 60%, water activity 0.936, 22° C.",VIII
same,Form at 24 h or 90 h,"[3]; water content 60%, water activity 0.936, 90 h, 22° C.",VIII + small
same,Form at 2 weeks,"[3]; water content 70%, water activity 0.943, 22° C.",VIII
same,Form at 2 weeks,"[3]; water content 80%, water activity 0.949, 22° C.",II + VIII
same,Form at 24 h or 90 h,"[3]; water content 80.9%, water activity 0.950, 24 h, 22° C.",I + II
same,Form at 24 h or 90 h,"[3]; water content 100%, water activity 1, 24 h, 22° C.",I + II
same,Form at 2 weeks,[4]; [8],solution
same,Form at 90 hours,[4]; [8],solution
same,Form at 2 weeks,[4]; [9],solution
same,Form at 90 hours,[4]; [9],solution
same,Form at 90 hours,"[4]; water content 50%, water activity 0.806",III + small
same,Form conversion in water,[5]; Form II in water at 48° C.,slowly converted to Form I; also recorded: converts slowly to Form I
same,Form I content by XRPD,"[5]; Form II slurry in water, 48° C. (50° C. jacket), 6 hour point",not detected
same,Form by XRPD,"[5]; Form II slurry in water, 48° C., after 30 hours",Form I became the dominant form
same,Stability and hygroscopicity,[6],stable and non-hygroscopic
same,Relative stability of forms,[7],more stable than Form VI
